The source made the active and inactive calls.
Legend:
[1] = THP-1 cell cytotoxicity, cytotoxicity control, set 6 (AID 602433); assay type: functional; conditions: Mycobacterium tuberculosis
[2] = viability loss in Vero cells – cell-based, purified and synthesized samples, set 8, cytotoxicity control for M. tuberculosis inhibitor project (AID 602431); assay type: functional; conditions: Mycobacterium tuberculosis
[3] = molecular target: T1, Sentrin-specific protease 6 (Homo sapiens, UniProt Q9GZR1); assay: inhibition of human SENP6 catalytic domain – biochemical, luminescence, set 2, SAR follow-up (AID 588598); assay type: functional
T1 sequence (Q9GZR1 whole entry): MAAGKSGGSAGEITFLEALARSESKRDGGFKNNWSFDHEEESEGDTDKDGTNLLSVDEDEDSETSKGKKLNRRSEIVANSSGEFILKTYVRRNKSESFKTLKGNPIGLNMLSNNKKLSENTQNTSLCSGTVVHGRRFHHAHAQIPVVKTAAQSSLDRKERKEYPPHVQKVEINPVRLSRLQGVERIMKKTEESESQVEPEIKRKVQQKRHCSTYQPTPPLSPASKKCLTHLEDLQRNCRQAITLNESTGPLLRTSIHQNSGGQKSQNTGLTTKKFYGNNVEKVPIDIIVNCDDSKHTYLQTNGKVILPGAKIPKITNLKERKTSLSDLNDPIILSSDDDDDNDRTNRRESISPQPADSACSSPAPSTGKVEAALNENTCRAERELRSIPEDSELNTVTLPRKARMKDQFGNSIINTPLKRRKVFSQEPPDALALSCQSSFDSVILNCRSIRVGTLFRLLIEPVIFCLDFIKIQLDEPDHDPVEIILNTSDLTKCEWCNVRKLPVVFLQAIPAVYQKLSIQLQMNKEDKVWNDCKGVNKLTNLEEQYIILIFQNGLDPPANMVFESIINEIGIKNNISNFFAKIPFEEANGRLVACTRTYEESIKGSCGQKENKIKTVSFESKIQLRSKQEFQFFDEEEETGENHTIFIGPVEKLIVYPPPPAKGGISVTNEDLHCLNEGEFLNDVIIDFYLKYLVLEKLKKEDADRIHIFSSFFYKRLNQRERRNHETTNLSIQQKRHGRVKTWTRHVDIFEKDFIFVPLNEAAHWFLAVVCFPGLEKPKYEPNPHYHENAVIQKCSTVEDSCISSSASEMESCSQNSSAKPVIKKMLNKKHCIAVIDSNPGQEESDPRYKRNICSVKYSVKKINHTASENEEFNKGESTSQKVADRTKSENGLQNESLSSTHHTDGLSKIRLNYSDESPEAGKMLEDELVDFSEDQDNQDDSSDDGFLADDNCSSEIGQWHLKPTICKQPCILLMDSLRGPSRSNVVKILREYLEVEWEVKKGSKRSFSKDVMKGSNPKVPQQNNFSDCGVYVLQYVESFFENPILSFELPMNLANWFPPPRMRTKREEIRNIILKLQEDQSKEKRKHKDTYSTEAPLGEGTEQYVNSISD

[4] = molecular target: T2, Sentrin-specific protease 8 (Homo sapiens, UniProt Q96LD8); assay: inhibition of sentrin protease 8 – biochemical, luminescence, set 2, SAR follow-up (AID 588601); assay type: functional
T2 sequence (Q96LD8 whole entry): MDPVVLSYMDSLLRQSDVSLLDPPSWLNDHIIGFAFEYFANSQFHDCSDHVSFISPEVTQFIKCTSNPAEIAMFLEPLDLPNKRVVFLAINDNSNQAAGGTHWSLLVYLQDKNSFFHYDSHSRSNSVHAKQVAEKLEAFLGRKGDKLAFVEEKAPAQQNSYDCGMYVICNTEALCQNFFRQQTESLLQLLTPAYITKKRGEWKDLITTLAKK

[5] = molecular target: T3, Sentrin-specific protease 7 (Homo sapiens, UniProt Q9BQF6); assay: inhibition of human SENP7 cleavage activity – biochemical, luminescence, set 2, SAR follow-up (AID 588600); assay type: functional
T3 sequence (Q9BQF6 whole entry): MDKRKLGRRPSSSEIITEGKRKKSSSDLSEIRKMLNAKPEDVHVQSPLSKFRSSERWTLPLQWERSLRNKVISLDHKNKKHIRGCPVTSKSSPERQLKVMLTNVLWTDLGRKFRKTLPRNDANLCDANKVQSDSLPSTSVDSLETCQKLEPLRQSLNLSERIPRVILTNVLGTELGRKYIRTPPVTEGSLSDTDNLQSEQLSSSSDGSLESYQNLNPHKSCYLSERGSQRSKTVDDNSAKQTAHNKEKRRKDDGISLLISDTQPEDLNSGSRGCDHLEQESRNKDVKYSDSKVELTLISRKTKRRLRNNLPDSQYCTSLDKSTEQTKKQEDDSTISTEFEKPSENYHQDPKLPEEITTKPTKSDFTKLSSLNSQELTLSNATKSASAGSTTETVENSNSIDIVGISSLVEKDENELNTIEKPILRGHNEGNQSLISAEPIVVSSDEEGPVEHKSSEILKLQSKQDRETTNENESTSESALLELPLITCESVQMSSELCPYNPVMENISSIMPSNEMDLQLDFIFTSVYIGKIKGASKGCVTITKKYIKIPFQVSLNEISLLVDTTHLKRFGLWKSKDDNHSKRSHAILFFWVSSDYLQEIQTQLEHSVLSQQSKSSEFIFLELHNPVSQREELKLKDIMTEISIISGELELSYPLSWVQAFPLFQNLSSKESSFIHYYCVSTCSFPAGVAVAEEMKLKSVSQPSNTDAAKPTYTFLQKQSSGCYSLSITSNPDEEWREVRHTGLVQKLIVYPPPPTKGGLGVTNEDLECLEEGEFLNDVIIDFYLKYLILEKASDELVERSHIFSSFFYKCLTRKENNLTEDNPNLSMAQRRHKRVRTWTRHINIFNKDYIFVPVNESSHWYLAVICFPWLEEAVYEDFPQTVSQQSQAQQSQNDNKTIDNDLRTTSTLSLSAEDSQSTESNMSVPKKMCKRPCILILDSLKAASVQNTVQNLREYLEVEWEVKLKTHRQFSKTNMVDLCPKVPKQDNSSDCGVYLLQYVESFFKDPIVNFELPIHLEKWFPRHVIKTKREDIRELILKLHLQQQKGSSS

Caspase-3 = molecular target: T4, Caspase-3 (Homo sapiens, UniProt P42574); assay: inhibition of recombinant caspase-3 activity – biochemical, luminescence, set 2, selectivity assay for SENP protease inhibitor project, SAR follow-up (AID 588599); assay type: functional
T4 sequence (P42574 whole entry): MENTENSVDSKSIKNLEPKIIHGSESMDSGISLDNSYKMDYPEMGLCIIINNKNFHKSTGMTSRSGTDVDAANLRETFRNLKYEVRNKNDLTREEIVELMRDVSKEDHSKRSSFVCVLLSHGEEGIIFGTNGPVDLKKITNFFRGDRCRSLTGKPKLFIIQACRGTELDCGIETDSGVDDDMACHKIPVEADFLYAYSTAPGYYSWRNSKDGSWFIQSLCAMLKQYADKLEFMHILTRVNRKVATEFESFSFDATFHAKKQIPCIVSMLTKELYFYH

[6] = molecular target: G protein-coupled receptor kinase 5 (Homo sapiens, UniProt P34947); assay: Navigating the Kinome. Panel member name: GPRK5; assay type: functional
[7] = molecular target: Death-associated protein kinase 3 (Homo sapiens, UniProt O43293); assay type: functional;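 note: measured as one member of a kinome-wide profiling panel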
LIM domain kinase 1 = LIM domain kinase 1 (Homo sapiens, UniProt P53667); assay: Navigating the Kinome. Panel member name: LIMK1; assay type: functional
[8] = molecular target: Serine/threonine-protein kinase Chk1 (Homo sapiens, UniProt O14757); assay type: functional;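 note: measured as one member of a kinome-wide kinase profiling panel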
[9] = molecular target: T5, Sphingosine 1-phosphate receptor 4 (Homo sapiens, UniProt O95977); assay: Late-stage fluorescence-based dose-response cell-based counterscreen assay to identify agonists of the Sphingosine 1-Phosphate Receptor 3 (S1P3): Sphingosine 1-Phosphate Receptor 4 (S1P4) agonist assay.; assay type: functional
T5 sequence (O95977 whole entry): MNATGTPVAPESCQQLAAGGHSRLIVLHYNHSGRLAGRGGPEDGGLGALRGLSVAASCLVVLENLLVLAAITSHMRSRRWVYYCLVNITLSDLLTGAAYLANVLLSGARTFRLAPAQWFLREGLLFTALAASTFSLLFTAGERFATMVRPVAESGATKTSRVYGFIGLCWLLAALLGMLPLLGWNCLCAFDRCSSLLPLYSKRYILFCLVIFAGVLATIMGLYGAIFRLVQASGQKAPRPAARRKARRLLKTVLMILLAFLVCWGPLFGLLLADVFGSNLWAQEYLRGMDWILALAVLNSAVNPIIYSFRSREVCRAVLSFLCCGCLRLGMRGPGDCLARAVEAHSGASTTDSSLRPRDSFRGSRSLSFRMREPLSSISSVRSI

[10] = molecular target: Sphingosine 1-phosphate receptor 2 (Homo sapiens, UniProt O95136); assay: Late-stage fluorescence-based dose-response cell-based counterscreen assay to identify agonists of the Sphingosine 1-Phosphate Receptor 3 (S1P3): Sphingosine 1-Phosphate Receptor 2 (S1P2) agonist assay.; assay type: functional
HEK293 = assay: EBV LMP1 TES2 canonical NF-kB signalling blockers – cell-based, HEK293, luciferase, cherry-pick, dose response (AID 588343); assay type: functional; conditions: Homo sapiens
[11] = molecular target: T6, Oxysterols receptor LXR-beta (Homo sapiens, UniProt P55055); assay type: functional, cell-based;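 note: agonist activity at LXR measured by a cell-based luminescence readout across a dose range, run as a counterscreen for daf-12 agonists; HEK293 cells with Gal4-LXR fusion and GAL4-driven luciferase reporter; potency for activation of Gal4-LXR reporter so compounds are agonists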
T6 sequence (P55055 whole entry): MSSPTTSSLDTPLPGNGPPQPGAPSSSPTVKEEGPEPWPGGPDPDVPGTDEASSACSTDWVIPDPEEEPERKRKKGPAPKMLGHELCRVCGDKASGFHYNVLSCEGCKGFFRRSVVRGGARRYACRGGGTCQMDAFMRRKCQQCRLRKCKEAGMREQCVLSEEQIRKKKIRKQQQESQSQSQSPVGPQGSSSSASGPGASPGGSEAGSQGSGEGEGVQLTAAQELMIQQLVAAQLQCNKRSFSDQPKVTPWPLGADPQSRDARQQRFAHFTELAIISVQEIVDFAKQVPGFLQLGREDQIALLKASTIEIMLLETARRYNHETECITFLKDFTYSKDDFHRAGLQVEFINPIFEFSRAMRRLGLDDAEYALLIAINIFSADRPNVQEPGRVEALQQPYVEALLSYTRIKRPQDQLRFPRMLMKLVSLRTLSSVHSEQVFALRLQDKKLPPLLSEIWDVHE

[12] = molecular target: Latent membrane protein 1 (Human herpesvirus 4 (strain B95-8), UniProt P03230); assay: LMP1 TES1 pathway selectivity over dsRED control – imaging, HEK293T, dual-color eGFP/dsRED, cherry-picks, selectivity assay for LMP1 NF-kB inhibitor project, dose response (AID 588398); assay type: functional, cell-based
Sequence of Latent membrane protein 1 (P03230 whole entry): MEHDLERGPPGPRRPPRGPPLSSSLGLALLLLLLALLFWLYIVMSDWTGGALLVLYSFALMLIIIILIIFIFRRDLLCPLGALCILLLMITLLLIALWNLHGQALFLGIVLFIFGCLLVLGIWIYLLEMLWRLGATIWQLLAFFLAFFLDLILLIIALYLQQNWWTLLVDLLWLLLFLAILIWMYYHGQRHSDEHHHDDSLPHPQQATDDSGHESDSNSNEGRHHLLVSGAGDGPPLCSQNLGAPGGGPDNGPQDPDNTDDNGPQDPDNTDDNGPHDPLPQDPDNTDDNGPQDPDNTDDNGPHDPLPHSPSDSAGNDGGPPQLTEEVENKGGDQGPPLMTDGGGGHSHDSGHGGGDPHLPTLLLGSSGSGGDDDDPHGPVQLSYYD

Sequence of Death-associated protein kinase 3 (O43293 whole entry, the tested form may be a part): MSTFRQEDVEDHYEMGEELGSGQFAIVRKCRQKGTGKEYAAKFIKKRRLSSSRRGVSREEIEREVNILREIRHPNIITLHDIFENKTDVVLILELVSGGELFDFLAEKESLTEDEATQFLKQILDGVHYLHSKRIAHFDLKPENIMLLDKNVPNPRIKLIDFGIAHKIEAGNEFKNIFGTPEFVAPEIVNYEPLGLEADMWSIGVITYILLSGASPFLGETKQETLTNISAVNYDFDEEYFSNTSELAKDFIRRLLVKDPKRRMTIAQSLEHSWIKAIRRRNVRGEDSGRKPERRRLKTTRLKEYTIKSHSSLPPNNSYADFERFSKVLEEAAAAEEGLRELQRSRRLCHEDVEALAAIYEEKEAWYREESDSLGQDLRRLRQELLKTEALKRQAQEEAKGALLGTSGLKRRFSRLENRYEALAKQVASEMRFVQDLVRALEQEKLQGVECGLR
Sequence of G protein-coupled receptor kinase 5 (P34947 whole entry): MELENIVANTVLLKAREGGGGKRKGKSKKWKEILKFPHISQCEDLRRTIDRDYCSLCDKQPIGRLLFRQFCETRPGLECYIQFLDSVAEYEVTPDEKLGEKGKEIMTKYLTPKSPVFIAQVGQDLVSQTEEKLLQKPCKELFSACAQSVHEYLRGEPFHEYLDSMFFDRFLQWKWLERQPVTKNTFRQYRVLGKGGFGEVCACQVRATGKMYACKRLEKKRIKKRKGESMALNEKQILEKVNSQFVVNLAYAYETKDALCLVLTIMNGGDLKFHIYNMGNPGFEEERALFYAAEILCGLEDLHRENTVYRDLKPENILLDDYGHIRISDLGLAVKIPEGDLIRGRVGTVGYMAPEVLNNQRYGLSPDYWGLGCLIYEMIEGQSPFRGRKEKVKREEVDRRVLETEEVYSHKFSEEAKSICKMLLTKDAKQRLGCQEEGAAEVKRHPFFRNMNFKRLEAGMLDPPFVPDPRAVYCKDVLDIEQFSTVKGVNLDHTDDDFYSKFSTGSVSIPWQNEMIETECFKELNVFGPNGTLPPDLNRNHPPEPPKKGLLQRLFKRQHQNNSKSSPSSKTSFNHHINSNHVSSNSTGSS
Sequence of LIM domain kinase 1 (P53667 whole entry, the tested form may be a part): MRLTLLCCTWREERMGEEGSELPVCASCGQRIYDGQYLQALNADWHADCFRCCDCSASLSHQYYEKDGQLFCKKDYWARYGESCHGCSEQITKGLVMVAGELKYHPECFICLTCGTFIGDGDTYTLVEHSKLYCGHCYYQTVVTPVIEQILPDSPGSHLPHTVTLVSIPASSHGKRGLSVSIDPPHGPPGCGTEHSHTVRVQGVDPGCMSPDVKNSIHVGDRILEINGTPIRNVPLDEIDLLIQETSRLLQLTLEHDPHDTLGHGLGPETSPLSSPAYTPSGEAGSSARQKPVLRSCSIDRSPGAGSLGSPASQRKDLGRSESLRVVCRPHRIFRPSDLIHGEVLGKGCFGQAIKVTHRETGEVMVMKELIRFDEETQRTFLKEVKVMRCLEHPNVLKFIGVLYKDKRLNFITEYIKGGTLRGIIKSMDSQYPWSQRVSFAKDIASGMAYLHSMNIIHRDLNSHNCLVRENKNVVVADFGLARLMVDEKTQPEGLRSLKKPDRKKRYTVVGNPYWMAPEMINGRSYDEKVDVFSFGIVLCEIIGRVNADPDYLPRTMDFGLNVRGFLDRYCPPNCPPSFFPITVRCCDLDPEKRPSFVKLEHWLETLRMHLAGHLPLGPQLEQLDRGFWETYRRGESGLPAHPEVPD
Sequence of Serine/threonine-protein kinase Chk1 (O14757 whole entry): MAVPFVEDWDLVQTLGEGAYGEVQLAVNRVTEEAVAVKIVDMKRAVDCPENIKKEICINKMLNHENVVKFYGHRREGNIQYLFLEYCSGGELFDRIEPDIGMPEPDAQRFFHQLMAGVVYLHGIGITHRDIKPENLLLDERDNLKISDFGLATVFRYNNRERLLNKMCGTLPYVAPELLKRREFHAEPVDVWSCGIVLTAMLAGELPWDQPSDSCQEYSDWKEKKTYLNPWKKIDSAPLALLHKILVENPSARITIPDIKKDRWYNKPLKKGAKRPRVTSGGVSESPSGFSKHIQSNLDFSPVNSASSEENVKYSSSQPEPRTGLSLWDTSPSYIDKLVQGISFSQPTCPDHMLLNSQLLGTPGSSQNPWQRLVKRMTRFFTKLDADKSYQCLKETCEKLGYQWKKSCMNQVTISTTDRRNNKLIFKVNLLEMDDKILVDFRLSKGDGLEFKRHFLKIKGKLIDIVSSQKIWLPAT
Sequence of Sphingosine 1-phosphate receptor 2 (O95136 whole entry): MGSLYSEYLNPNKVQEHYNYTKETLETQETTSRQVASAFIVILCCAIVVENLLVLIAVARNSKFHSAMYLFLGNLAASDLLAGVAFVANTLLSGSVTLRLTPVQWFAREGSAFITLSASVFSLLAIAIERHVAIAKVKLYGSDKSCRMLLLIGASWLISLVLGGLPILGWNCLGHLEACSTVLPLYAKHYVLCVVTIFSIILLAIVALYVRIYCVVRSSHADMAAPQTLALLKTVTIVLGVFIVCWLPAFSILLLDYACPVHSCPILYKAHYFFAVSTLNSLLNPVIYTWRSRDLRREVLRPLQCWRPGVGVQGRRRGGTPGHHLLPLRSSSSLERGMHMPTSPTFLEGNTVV

In the case of `O=C(CSc1nc2c(c(=O)[nH]1)CN(Cc1ccccc1)CC2)NC1CCCCC1`, the CC50 [1] is reported as > 100 µM (inconclusive) and the CC50 [2] is reported as > 100 µM (inconclusive).

In the case of `Cc1[nH]c2ccccc2c1/C=N/NC(=O)Cc1nnc(N)s1`, the IC50 [3] is reported as > 99 µM (inactive), the IC50 [4] is reported as > 99 µM (inactive) and the IC50 [5] is reported as > 99 µM (inactive). The IC50 (Caspase-3) was > 99 µM (inactive).

With `Cc1nn(C)c(C)c2cc([N+](=O)[O-])cc1-2` the Ki [6] was 3.98 µM (active), the Ki [7] was 3.98 µM (active) and the Ki (LIM domain kinase 1) was 2 µM (active). For the same compound, the Ki [8] was 1.58 µM (active).

In the case of `O=C(c1cc(-c2ccccc2)on1)N(C1CCCCC1)C1CCCCC1`, the EC50 [9] is reported as > 50 µM (inactive) and the EC50 [10] is reported as > 50 µM (inactive).

With `CCc1sc(C(=O)Nc2ncccc2O)cc1C` the AC50 (HEK293) was 3.71 µM (active), the EC50 [11] was > 67.5 µM (inactive) and the AC50 [12] was 29.7 µM (active).

From ChEMBL document CHEMBL1201862, “PubChem BioAssay data set” (2004)
